One experiment has as its target T1, FBXO22 (Homo sapiens, UniProt Q8NEZ5).
T1 construct: expressed in transfected cells; host or cells: HEK293T
T1 sequence (Q8NEZ5 1-403): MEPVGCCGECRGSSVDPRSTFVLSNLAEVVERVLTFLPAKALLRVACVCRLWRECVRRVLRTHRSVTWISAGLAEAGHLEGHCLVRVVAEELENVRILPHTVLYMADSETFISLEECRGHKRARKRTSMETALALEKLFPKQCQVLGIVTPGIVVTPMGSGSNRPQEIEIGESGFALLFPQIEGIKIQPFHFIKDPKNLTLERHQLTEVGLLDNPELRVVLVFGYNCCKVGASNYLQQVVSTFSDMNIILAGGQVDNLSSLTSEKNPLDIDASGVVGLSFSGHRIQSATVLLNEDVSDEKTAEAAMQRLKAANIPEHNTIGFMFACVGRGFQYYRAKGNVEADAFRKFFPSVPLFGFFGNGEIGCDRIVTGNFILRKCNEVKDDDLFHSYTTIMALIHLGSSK
Kind of experiment: Competitive cysteine-directed activity-based protein profiling (ABPP). The class given is binding. From the text: FIGS. 3A-3H show FBXO22 C227 and C228 are involved in 22-SLF-mediated degradation of FKBP12. […] Among 5,650 quantified IA-DTB-modified peptides, four cysteines were identified on FBXO22 (C83, C117, C228, and C365). […] Data are presented as the mean values (n=2 biological independent samples for DMSO treatment; n=3 biological independent samples for 22-SLF Treatment). […] The bag graph represents quantification of the FLAG-FKBP12/HSP90 protein content. Data are presented as mean values (n=2 biological independent samples). […] The bar graph represents quantification of the FLAG-FKBP12/HSP90 protein content. Data are presented as the mean values (n=2 biological independent samples).
To identify the cysteine residue(s) in FBXO22 engaged with 22-SLF, HA-FBXO22-expressing HEK293T cells were treated with either DMSO or 22-SLF (2 μM, 2 hours). Using competitive cysteine-directed activity-based protein profiling (ABPP), a chemical proteomics for the measurement of target engagement, the degree of blockade of iodoacetamide-desthiobiotin (IA-DTB)-modified cysteines on FBXO22 was quantified. From a pool of 5,650 quantified IA-DTB-modified peptides, four cysteines on FBXO22 (C83, C117, C228, and C365) (FIG. 3a) were identified, with approximately 20% of FBXO22 C228 being blocked by 22-SLF treatment (FIG. 3b), indicating the potential interaction with this cysteine by 22-SLF. […]

For a further experiment, the target named is T2, FKBP12-EGFP (Homo sapiens, UniProt P62942).
T2 construct: expressed in transfected cells
Kind of experiment: E3 ligase focused CRISPR-Cas9 transcriptional activation screen for FKBP12-EGFP degradation. The experiment is classed as cell-based. As to conditions: 2 μM 22-SLF, 24 hours, HEK293T CRISPR-Cas9 transcriptional activation cells. On the procedure:
FIGS. 1A-1E show an E3 ligase focused CRISPR-Cas9 transcriptional activation screen identifies FBXO22 that supports 22-SLF-induced reduction in FKBP12-EGFP expression levels. FIG. 1A is a schematic representation of the steps in the CRISPR-Cas9 transcriptional activation screen. […] FIG. 1C is a volcano plot showing the E3 ligase focused CRISPR-Cas9 transcriptional activation screen for FKBP12-EGFP degradation after treatment of 2 μM 22-SLF in HEK293T CRISPR-Cas9 transcriptional activation cells for 24 hours. […] The statistical significance was evaluated through unpaired two-tailed Student's t-tests, comparing cells transduced with FBXO22 sgRNA to control sgRNA. Statistical significance denoted ****P<0.0001. […] The statistical significance was evaluated through unpaired two-tailed Student's t-tests, comparing cells treated with 22-SLF to DMSO. Statistical significance denoted as ***P<0.001 and ns: not significant.
With the CRISPR-Cas9 transcriptional activation cells, a CRISPR-Cas9 transcriptional activation pool screen was developed to identify E3 ligases that support FKBP12 degradation by FKBP12-directed heterobifunctional compounds. […] Subsequently, cells from the bottom 15% of the GFP population were isolated using fluorescence-activated cell sorting (FIG. 1a and FIG. 7). […]

In experiment [1] the target is T3, FKBP12 and FBXO22 (Homo sapiens, UniProt P62942+Q8NEZ5, C227A/C228A).
T3 construct: expressed in transfected cells; host or cells: HEK293T
In words: Coimmunoprecipitation of HA-FBXO22 with FLAG-FKBP12 (ternary complex). The class given is cell-based. As to conditions: HEK293T cells, with MG132. From the text:
(§1) FIGS. 4A-4C show 22-SLF induces the formation of a ternary complex involving 22-SLF, FKBP12 and FBXO22. […] The bar graph represents quantification of the immunoprecipitated HA-FBXO22 protein content compared to the HA-FBXO22 protein in whole cell lysates (WCL). Data are presented as the mean values (n=2 biological independent samples). […] Data are presented as the mean values (n=2 biological independent samples).
(§2) The formation of ternary complex by degraders with their target protein and E3 ligase drives the subsequent target degradation.

Experiment [2] concerns FKBP12 and FBXO22. Described as above. The experiment is classed as cell-based, human. Conditions: HEK293T cells, with MG132.
Excerpt: as §1, §2

The target in experiment [3] is T4, FKBP12 and FBXO22 (Homo sapiens, UniProt P62942+Q8NEZ5).
T4 construct: expressed in transfected cells; host or cells: HEK293T
Described as above. The class given is cell-based. Conditions: HEK293T cells, with MG132.
Excerpt: as §1, §2

SMILES strings stand for the structures.

T2 sequence (P62942 whole entry): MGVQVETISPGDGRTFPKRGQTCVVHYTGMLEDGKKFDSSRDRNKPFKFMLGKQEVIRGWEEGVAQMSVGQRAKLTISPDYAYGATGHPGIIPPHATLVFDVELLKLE
T3 sequence (P62942 2-108): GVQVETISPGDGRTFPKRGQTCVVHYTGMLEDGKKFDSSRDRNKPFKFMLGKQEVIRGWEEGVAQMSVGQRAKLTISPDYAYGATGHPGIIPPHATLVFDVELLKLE
T3 sequence (Q8NEZ5 whole entry C227A/C228A): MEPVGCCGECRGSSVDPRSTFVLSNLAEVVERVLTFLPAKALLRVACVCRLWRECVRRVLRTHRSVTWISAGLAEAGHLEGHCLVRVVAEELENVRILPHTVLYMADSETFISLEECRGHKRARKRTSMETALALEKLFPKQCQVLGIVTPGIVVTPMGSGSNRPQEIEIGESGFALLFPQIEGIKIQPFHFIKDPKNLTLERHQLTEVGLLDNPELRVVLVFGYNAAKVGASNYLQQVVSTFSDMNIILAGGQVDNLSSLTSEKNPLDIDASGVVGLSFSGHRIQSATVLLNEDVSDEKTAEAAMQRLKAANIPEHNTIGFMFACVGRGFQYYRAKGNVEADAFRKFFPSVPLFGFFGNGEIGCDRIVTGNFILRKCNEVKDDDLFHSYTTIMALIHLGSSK
T3 sequence (P63208 whole entry partner): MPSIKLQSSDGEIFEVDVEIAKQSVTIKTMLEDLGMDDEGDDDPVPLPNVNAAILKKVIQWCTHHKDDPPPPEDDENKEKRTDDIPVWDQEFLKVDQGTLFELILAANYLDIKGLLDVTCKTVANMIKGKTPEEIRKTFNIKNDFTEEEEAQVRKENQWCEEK
T4 sequence (P62942 2-108, one chain of several): as the sequence (P62942 2-108) above
T4 sequence (P63208 whole entry partner, one chain of several): as the sequence (P63208 whole entry partner) above

Take `CCC(C)(C)C(=O)C(=O)N1CCCC[C@H]1C(=O)O[C@H](CCc1ccc(OC)c(OC)c1)c1cccc(OCC(=O)NCCCOCCOCCOCCCN(C(=O)CCl)C(C(=O)NCc2ccccc2)c2nc3ccccc3s2)c1` (stereo partly drawn) [22-SLF]: on FBXO22 (2 μM, 2 hours, HA-FBXO22-expressing HEK293T cells), the “Blockade of IA-DTB-modified FBXO22 C228” value was “approximately 20%”. The “Engagement of FBXO22 C227” value at FBXO22 (FIG. 3b) is given as “approximately 20%”. Besides, the “Enrichment of sgRNAs in sorted low-GFP cells” value on FKBP12-EGFP is reported as “substantial enrichment of two distinct sgRNAs targeting the same E3 ligase, FBXO22”. The “Ternary complex assembly, FBXO22 C227AC228A double mutant” value on FKBP12 and FBXO22 [1] is listed as “nearly completely abolished”. The “Ternary complex assembly, FBXO22 C227A or C228A single mutant” value in the experiment with FKBP12 and FBXO22 [2] was “partially hindered”. For the same molecule, on FKBP12 and FBXO22 [3], the “Ternary complex formation, FBXO22 wild type” value is on record as “HA-FBXO22 co-immunoprecipitated with FLAG-FKBP12”.

The record behind these values is patent publication US20250092383A1, “COMPOUNDS AND METHODS FOR FBXO22-MEDIATED PROTEIN DEGRADATION” (Northwestern University, priority 2023, published 2025).
